Laboratory results reported in patent publication US20090215835A1, “TREATMENT OF CANCER WITH SORAFENIB” (priority 2005, published 2009).

Key:
Assay type in all cases: in vivo, human
[1] = test system: inoperable hepatocellular carcinoma (HCC); test: Tumor response, TTP and survival in patients with inoperable hepatocellular carcinoma on oral sorafenib; conditions: 400 mg bid oral
Method: (§1) Patients with inoperable hepatocellular carcinoma (HCC), no prior systemic treatment, and Child-Pugh (CP) score of A or B, received oral sorafenib at 400 mg bid continuously in 4-week cycles. Tumor response was assessed every two cycles using modified WHO criteria and independent radiologic review. Plasma samples were collected to evaluate the pharmacokinetics (PK) of sorafenib. Biomarker assays were performed in selected patients. These included phospho-ERK levels via immunohistochemistry in pretreatment biopsies, plasma HER-2/neu analysis, plasma protein proteomics via mass spectrometry, and blood cell RNA expression patterns via Affymetrix GeneChip microarray analysis.

[2] = Drug-related toxicities in HCC patients on oral sorafenib; conditions: 400 mg bid oral
Method: as §1

[3] = Pharmacokinetics of sorafenib in plasma of HCC patients; conditions: Child-Pugh A versus B HCC patients, 400 mg bid oral
Method: as §1

[4] = 137 HCC patients, independent radiologic review

N-[4-chloro-3-(trifluoromethyl)phenyl]-N′-{4-[2-carbamoyl-1-oxo-(4-pyridyloxy)]phenyl}urea [sorafenib]
patients who achieved a partial response ([1]; 137 HCC patients, continuous 4-week cycles, independent radiologic review, modified WHO criteria): 2.2% | patients who achieved a minor response [1, 4]: 5.8% | patients with stable disease for at least 16 weeks as best response [1, 4]: 33.6% | median overall survival ([1]; HCC patients): 9.2 months | median TTP ([1]; investigator-assessed, HCC patients): 4.2 months | grade ¾ drug-related toxicity leading to dose delay and/or modification: diarrhea [2]: 4.4% | grade ¾ drug-related toxicity leading to dose delay and/or modification: fatigue [2]: 5.8% | grade ¾ drug-related toxicity leading to dose delay and/or modification: hand-foot skin reaction [2]: 5.1% | pharmacokinetic differences between CP A and B patients [3]: no pharmacokinetic differences
